# Laboratory results: patent publication US20100099762A1, “COMBINATION THERAPY” (THE MENTAL HEALTH RESEARCH INSTITUTE OF VICTORIA, priority 2006, published 2010)
# “Also recorded” adds a separate entry of the source.
# Test system: total glutathione levels
# Experiment: Total glutathione in striatum and liver of rats after CHX depletion
# Assay type: in vivo, Sprague-Dawley rats
# Conditions: CHX 75 mg/kg i.p.
# Protocol: Male Sprague-Dawley rats aged nine weeks and weighing an average of 390 g, were used in the study. Animals were maintained on a twelve hour light-dark cycle with water and food ad libitum. Two animals were housed per cage with room temperature maintained at 22° C.
# All pharmacological agents were administered by intraperitoneal injection (i.p.) in a volume of 1 ml/kg, except where otherwise stated. All agents were prepared using saline as a diluent. Brain GSH depletion was performed using cyclohexene-1-one (CHX), administered at 75 mg/kg. Animals were returned to their cage for 90 minutes prior to administration of N-acetyl cysteine (NAC) or N-acetyl cysteine amide (NACA or “AD4”). Animals were killed by decapitation 1 hour after NACA or NAC treatment.
# Frontal cortex, striatum and liver samples were immediately excised on ice, weighed and sonicated in SSA buffer (5% sulfosalicylic acid in 100 mM disodium hydrogen orthophosphate, 100 mM sodium dihydrogen orthophosphate and 1 mM EDTA, pH 7.5, 5 mL/g wet tissue). The samples were subsequently centrifuged (22×10^3 g for 10 minutes, 4° C.) and the […] was taken and frozen at −80° C. until analysed.
# Total glutathione levels (μmol GSH/gram tissue) were determined in all samples. Samples were assayed according to Baker et al. (1990). Reduced glutathione standards ranging from 0 to 320 ρmol of GSH in 50 μL were prepared in a background buffer identical to the samples (SSA buffer) and then treated in parallel with samples. 50 μl of sample or standard was placed on a 96-well microtiter plate with 100 μL of assay reagent (final concentration in well; 0.15 mM DTNB, 0.2 mM NADPH, 1.0 U glutathione reductase/mL). Plates were assayed for a total of 2 minutes at 414 nm using a Multiskan MCC/340 MK II plate reader and Genesis V3.05 computer software. All chemicals were purchased from Sigma-Aldrich. Statistical evaluation of the data was conducted using analysis of variance (ANOVA).
structure (smiles),measurement,value
"O=C1C=CCCC1 [CHX, cyclohexene-1-one]",Total glutathione levels in the brain striatum,significant decrease; also recorded: depleted
same,Total glutathione levels in the liver,significant decrease; also recorded: depleted
